Measured values taken from paper PMC4754833, “Rilpivirine analogs potently inhibit drug-resistant HIV-1 mutants” (Retrovirology, 2016).
Like-named read-outs stand apart in the source and are kept apart here.

Experiments:
[1] = test system: HIV-1 RT mutant K103N/P225H; experiment: single round infection assay, K103N/P225H; type: cell-based; settings: for IC50: Human immunodeficiency virus 1; for fold-change of IC50 of the mutant relative to WT: K103N/P225H vs WT
HIV-1 RT mutant D67E = experiment: single round infection assay, D67E; type: cell-based; settings: for fold-change of IC50 of the mutant relative to WT: D67E vs WT; for IC50: ± SD, n=4
HIV-1 RT mutant Y181I = experiment: single round infection assay, Y181I; type: cell-based; settings: for IC50: Human immunodeficiency virus 1; for fold-change of IC50 of the mutant relative to WT: Y181I vs WT
[2] = test system: HIV-1 RT mutant V106A/G190A/F227L; experiment: single round infection assay, V106A/G190A/F227L; type: cell-based; settings: for IC50: Human immunodeficiency virus 1; for fold-change of IC50 of the mutant relative to WT: V106A/G190A/F227L vs WT
HIV-1 RT mutant E138K = experiment: single round infection assay, E138K; type: cell-based; settings: for fold-change of IC50 of the mutant relative to WT: E138K vs WT; for IC50: ± SD, n=4
HIV-1 RT mutant K101E = experiment: single round infection assay, K101E; type: cell-based; settings: for IC50: ± SD, n=4; for fold-change of IC50 of the mutant relative to WT: K101E vs WT
Method: (§1) The human osteosarcoma cell line, HOS, was obtained from Dr. Richard Schwartz (Michigan State University, East Lansing, MI) and grown in Dulbecco’s modified Eagle’s medium (Invitrogen, Carlsbad, CA) supplemented with 5 % (v/v) fetal bovine serum, 5 % newborn calf serum, and penicillin (50 units/ml) plus streptomycin (50 µg/ml; Quality Biological, Gaithersburg, MD). Virion production and single-round infectivity assays were used to determine antiviral activity (IC50 values) of the compounds as previously described.
(§2) pNLNgoMIVR-ΔEnv.LUC has been described previously. The RT open reading frame was removed from pNLNgoMIVR-ΔEnv.LUC (digestion with SpeI and SalI) and inserted between the SpeI and SalI sites of pBluescript II KS+. Using that construct as the wild-type template, we prepared the following HIV-1 RT mutants using the QuikChange II XL (Stratagene, La Jolla, CA) site-directed mutagenesis protocol kit: L100I, K103N, Y181C, Y188L, H221Y, K103N/Y181C, G190A, G190S, M230L, P236L, L100I/K103N, K103N/P225H, V106A/G190A/F227L, V106A, L234I, V106A/F227L, V106A/L234I, V106A/F227L/L234I, E40K, D67E, K101E, V111A, E138K, M184I, M184V, K101E/M184I, K101E/M184V, E138K/M184I, E138K/M184V, K101P, Y181I, and K101P/V179I. The following sense oligonucleotides were used with matching cognate antisense oligonucleotides (not shown) (Integrated DNA Technologies, Coralville, IA) in the mutagenesis: L100I, 5′-[…]-3′; L100I 2-103, 5′-[…]-3′; K103N, 5′-[…]-3′; Y181C, 5′-[…]-3′; Y188L, 5′-[…]-3′; H221Y, 5′-[…]-3′; G190A, 5′-[…]-3′; G190S, 5′-[…]-3′; P225H, 5′-[…]-3′; F227, 5′-[…]-3′; M230L, 5′-[…]-3′; P236L, 5′-[…]-3′; V106A, 5′-[…]-3′; L234I, 5′-[…]-3′; E40K, 5′-[…]-3′; D67E, 5′-[…]-3′; K101E, 5′-[…]-3′; V111A, 5′-[…]-3′; E138K, 5′-[…]-3′; M184I, 5′-[…]-3′; M184V, 5′-[…]-3′; K101P, 5′-[…]-3′; Y181I, 5′-[…]-3′; K101P/V179I, 5′-[…]-3′. The double mutants K103N/Y181C, K103N/P225H, and L100I/K103N were made using the previously generated K103N mutant and the appropriate oligonucleotides to add the second mutation, Y181C, P225, and L100I respectively. The double mutants V106A/F227L and V106A/L234I were prepared using the previously generated V106A mutant and the appropriate oligonucleotides to add the second mutation, F227L and L234I, respectively. The double mutants K101E/M184I and K101E/M184V were constructed using the previously generated K101E mutant and the appropriate oligonucleotides to add the second mutation, M184I and M184V, respectively. The double mutants E138K/M184I and E138K/M184V were constructed using the previously generated E138K mutant and the appropriate oligonucleotides for the second mutation, M184I and M184V, respectively. The triple mutant V106A/F227L/L234I was made using the previously generated V106A/F227L double mutant and the appropriate oligonucleotides for the third mutation, L234I. The triple mutant V106A/G190A/F227L was constructed in a series of steps using the previously generated V106A mutant and the appropriate oligonucleotides for the second mutation, G190A, to generate the double mutant V106A/G190A, and then the triple mutant was made using double mutant V106A/G190A and oligonucleotides for the third mutation, F227L. The DNA sequence of each construct was verified by DNA sequence determination. The sequences encoding the mutant RTs were then subcloned into pNLNgoMIVR-ΔEnv.LUC (between the KpnI and SalI sites) to produce the mutant HIV-1 constructs. These DNA sequences were also checked independently by DNA sequence determination.
(§3) 10.1186/s12977-016-0244-2 The IC50 values (nM) of RPV and the RPV analogs were determined against the NNRTI resistant mutants were measured by using a single round infection assay, n = 4. The concentrations (nM) are measured by reductions in luciferase reporter activity followed by the standard deviations. […]

HIV-1 RT mutant K101P = experiment: single round infection assay, K101P; type: cell-based; settings: for IC50: Human immunodeficiency virus 1; for fold-change of IC50 of the mutant relative to WT: K101P vs WT
[3] = test system: HIV-1 RT mutant E138K/M184V; experiment: single round infection assay, E138K/M184V; type: cell-based; settings: for fold-change of IC50 of the mutant relative to WT: E138K/M184V vs WT; for IC50: ± SD, n=4
Method: as §1, §2, §3

WT HIV-1 [4] = experiment: single round infection luciferase assay, WT HIV-1; type: cell-based; settings: Human immunodeficiency virus 1
WT HIV-1 [5] = settings: previous study; cited from earlier work
HIV-1 RT mutant M230L = experiment: single round infection assay, M230L; type: cell-based; settings: for IC50: Human immunodeficiency virus 1, M230L, ± SD, n=4, limit of detection 100 nM; for fold-change of IC50 of the mutant relative to WT: M230L vs WT
HIV-1 RT mutant H221Y = test system: HIV-1 RT mutant H221Y; parameters: method as in PMID 23217210; settings: previous study; cited from earlier work
[6] = test system: HIV-1 RT mutant E138K/M184I; experiment: single round infection assay, E138K/M184I; type: cell-based; settings: E138K/M184I vs WT
[7] = Human immunodeficiency virus 1, D67E
[8] = Human immunodeficiency virus 1, E138K
[9] = Human immunodeficiency virus 1, K101E
[10] = Human immunodeficiency virus 1, E138K/M184V

SMILES	IC50 [1] [nM]	fold-change of IC50 of the mutant relative to WT (HIV-1 RT mutant D67E)	IC50 (HIV-1 RT mutant D67E; [7]) [nM]	IC50 (HIV-1 RT mutant Y181I) [nM]	fold-change of IC50 of the mutant relative to WT (HIV-1 RT mutant Y181I)	IC50 [2] [nM]	fold-change of IC50 of the mutant relative to WT [2]	fold-change of IC50 of the mutant relative to WT (HIV-1 RT mutant E138K)	IC50 (HIV-1 RT mutant E138K; E138K) [nM]	IC50 (HIV-1 RT mutant E138K; [8]) [nM]	IC50 (HIV-1 RT mutant K101E; [9]) [nM]	fold-change of IC50 of the mutant relative to WT (HIV-1 RT mutant K101E)	IC50 (HIV-1 RT mutant K101E; K101E) [nM]	IC50 (HIV-1 RT mutant K101P) [nM]	fold-change of IC50 of the mutant relative to WT [3]	IC50 (WT HIV-1 [4]) [nM]	IC50 (WT HIV-1 [5]) [nM]	fold-change of IC50 of the mutant relative to WT (HIV-1 RT mutant M230L)	IC50 (HIV-1 RT mutant H221Y) [nM]	fold-change of IC50 of the mutant relative to WT [6]	also measured
Cc1cc(/C=C/C#N)cc(C)c1Nc1nc(Nc2ccc(C(F)(F)F)cc2)c2nc[nH]c2n1 [compound 15]	1.5 ± 0.31	8	13.1	50.2	30	2.6 ± 0.17	< 2	4	6.3 ± 1.3	< 6	< 6	4	6.2 ± 1.2	> 100	< 2	1.7 ± 0.3	< 7	10	< 7	< 2	IC50 ([3]; E138K/M184V): 3.1 ± 0.4 nM; IC50 [3, 10]: < 6 nM; IC50 (HIV-1 RT mutant M230L): 16.8 nM
Cc1cc(/C=C/C#N)cc(C)c1Nc1ncc([N+](=O)[O-])c(Nc2ccc(C#N)cc2)n1 [compound 8]	1.2 ± 0.33	8	12.7	74.8	47	2.8 ± 0.42	< 2	2	3.4	< 6	10.1	6	–	9.9	< 2	1.6 ± 0.2	< 7	7	< 7	< 2	fold-change of IC50 of the mutant relative to WT (HIV-1 RT mutant K101P): 6; IC50 (HIV-1 RT mutant M230L): 11.9 nM
Cc1cc(/C=C/C#N)cc(C)c1Nc1nc(Nc2ccc(C#N)cc2)ncc1[N+](=O)[O-] [compound 6]	0.8 ± 0.06	3	< 2.5	55.3	110	1.1 ± 0.2	2	3	1.4 ± 0.3	< 2.5	< 2.5	5	2.6 ± 0.96	2.5	3	0.5 ± 0.17	< 7	6	< 7	2	fold-change of IC50 of the mutant relative to WT [1]: < 2; IC50 (HIV-1 RT mutant D67E; D67E): 1.7 ± 0.14 nM; fold-change of IC50 of the mutant relative to WT (HIV-1 RT mutant K101P): 5; IC50 ([3]; E138K/M184V): 1.63 ± 0.08 nM; IC50 [3, 10]: < 2.5 nM
CC(=O)c1ccc(Nc2nc(Nc3c(C)cc(/C=C/C#N)cc3C)nc3[nH]cnc23)cc1 [compound 14]	0.92 ± 0.14	4	< 2.5	> 100	–	0.9 ± 0.18	2	6	2.6 ± 0.6	< 2.5	< 2.5	4	1.7 ± 0.5	> 100	2	0.41 ± 0.08	< 7	7	< 7	3	fold-change of IC50 of the mutant relative to WT [1]: 2; IC50 (HIV-1 RT mutant D67E; D67E): 1.7 ± 0.21 nM
